Reference: patent publication US4707491A, “Anticonvulsant γ-thiobutyrolactone derivatives” (Washington University, priority 1985, dated 1987)
Like-named read-outs stand apart in the source and are kept apart here.

Columns and labels:
[1] = test system: maximal electroshock seizures; experiment: Maximal Electroshock Seizure Test; type: in vivo, mice; settings: for anti-MES activity: comparison of anticonvulsant profiles
Description: One recognized test which is frequently used for this purpose is to determine the capacity of the drug to modify the effects of maximal electric shock (MES) by inhibition of tonic hindlimb extension. See, for example, the test described by Swinyard and co-workers at J. Pharmacol. Exper. Therap. 106, 319-330 (1952).
(§1) Compounds were tested for anticonvulsant activity and toxicity in mice by the following tests.
Maximal Electroshock Seizure Test
At the time of peak effect of the test substance, a drop of 0.9% sodium chloride is applied to the eyes of each animal. Corneal electrodes are applied to the eyes, and an electrical stimulus of 50 mA is delivered for 0.2 sec. The animals are held by hand and released at the time of stimulation for observation of the seizure. Abolition of the hindleg tonic extension component is taken as the endpoint for this test.

[2] = test system: pentylenetetrazol seizures; experiment: Pentylenetetrazol Seizure Threshold Test; type: in vivo; settings: Mus musculus, mice
Description: See, for example, Krall et al., Epilepsia 19, 409-428 (1978).
as §1
Pentylenetetrazol Seizure Threshold Test
The animals are placed in isolation cages and observed for the next 30 min. for the presence or absence of a seizure. A threshold convulsion is defined as one episode of clonic spasms that persists for at least a 5-sec period.

[3] = Rotorod Test for Toxicity; settings: mouse, in vivo; mice; rotorod at 6 rpm, 10 min; at time of peak effect
Description: The rotorod test is a standard method used in mice to access neurotoxicity and is described, for example, by Krall et al., Epilepsia 19, 409-428 (1978).
as §1
Rotorod Test for Toxicity
This test is used in mice to assess neurotoxicity. Mice are placed on the rotorod, which rotates at 6 rpm, and tested for maintenance of their equilibrium for 10 min. All mice are pre-tested before test substance is given. At the time of peak effect of the test substance, mice are put back on the rotorod for 10 min. Neurological deficit (toxicity) is indicated by the inability of the animal to maintain its equilibrium for 10 min. on this rotating rod.

[4] = read-out: ED50 against (clonic) seizures produced by 85 mg/kg pentylenetetrazol, 85 mg/kg pentylenetetrazol IP, clonic (threshold) seizures

Structure (SMILES)	anti-MES activity [1]	ED50 [2, 4] [mg/kg]	ED50 ([2]; read-out: ED50 against clonic seizures produced by 100 mg/kg pentylenetetrazol, 100 mg/kg pentylenetetrazol IP, clonic seizures) [mg/kg]	ED50 ([2]; read-out: ED50 against tonic seizures produced by 100 mg/kg pentylenetetrazol, 100 mg/kg pentylenetetrazol IP, tonic seizures) [mg/kg]	protection against maximal electroshock seizures ([1]; mice, at doses up to 350 mg/kg)	TD50 [3] [mg/kg]	ED50 ([1]; Mus musculus, read-out: ED50 against maximal electroshock seizures (MES)) [mg/kg]
CCC1(C)CC(=O)NC1=O (centres unmarked) [ethosuximide]	do not						
CCCC(CCC)C(=O)O [valproic acid]	have anti-MES activity						
CCC1(C)CCOC1=O (stereo not drawn) [α-EMBL, α-ethyl-α-methyl-γ-butyrolactone]	do not	226	304	250	No protection	~350	
CC(C)C1CCSC1=O (stereo not drawn) [α-isopropyl-γ-thiobutyrolactone]		137				278	240
